The values that follow come from paper PMC10819651 (Molecules, 2024).

Structures are written as SMILES.

The target in experiment [1] is T1, Human monoamine oxidase A (Homo sapiens, UniProt P21397).
T1 construct: purchased Sigma-Aldrich (Milan, Italy)
T1 sequence (P21397 1-527): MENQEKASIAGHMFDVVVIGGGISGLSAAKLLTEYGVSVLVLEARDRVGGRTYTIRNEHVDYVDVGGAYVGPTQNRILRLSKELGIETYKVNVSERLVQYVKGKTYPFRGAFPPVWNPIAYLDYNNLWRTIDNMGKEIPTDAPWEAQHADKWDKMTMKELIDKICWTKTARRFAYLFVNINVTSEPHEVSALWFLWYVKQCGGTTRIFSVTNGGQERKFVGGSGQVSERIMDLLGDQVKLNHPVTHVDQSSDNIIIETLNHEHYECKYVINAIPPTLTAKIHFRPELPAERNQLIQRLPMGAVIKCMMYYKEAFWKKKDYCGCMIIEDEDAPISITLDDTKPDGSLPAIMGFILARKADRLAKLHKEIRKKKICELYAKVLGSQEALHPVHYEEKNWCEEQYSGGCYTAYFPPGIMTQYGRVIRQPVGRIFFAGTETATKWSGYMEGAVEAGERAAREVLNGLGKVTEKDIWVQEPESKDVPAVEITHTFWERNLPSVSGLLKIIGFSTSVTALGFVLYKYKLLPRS
The experiment in a line: Steady-state MAO-A activity, fluorimetric kynuramine assay. To be noted: 40 μM kynuramine, 20 min, pH 7.1; mean ± SD (n); from semilogarithmic plot. Format: biochemical. The protocol: Monoamine oxidase activity was assayed by the fluorimetric method, as previously reported. This method, based on the monoamine oxidase oxidation of its non-selective substrate kynuramine, led to the production of […], which becomes fluorescent in alkaline conditions. In steady-state measurements of MAO activity, the reaction mixture (250 µL), prepared in a 50 mM potassium phosphate buffer, pH 7.1 (buffer A), contained 40 μM kynuramine in the absence or presence of the indicated concentration of the inhibitor. The DMSO concentration carried over by the inhibitor was 0.5% (v/v), and an identical concentration of DMSO was used in the absence of the inhibitor. […] The reaction was stopped by adding 150 μL of 2 M NaOH and, after 10 min of incubation at room temperature, 240 μL of water. After centrifugation (10 min at 15,000 rpm), the fluorescence signal was measured on 500 μL of supernatant using a Cary Eclipse Spectrofluorimeter (Agilent Technologies, Milan, Italy) at room temperature (20–25 °C).

The target in experiment [2] is T2, Human monoamine oxidase B (Homo sapiens, UniProt P27338).
T2 construct: purchased Sigma-Aldrich (Milan, Italy)
T2 sequence (P27338 1-520): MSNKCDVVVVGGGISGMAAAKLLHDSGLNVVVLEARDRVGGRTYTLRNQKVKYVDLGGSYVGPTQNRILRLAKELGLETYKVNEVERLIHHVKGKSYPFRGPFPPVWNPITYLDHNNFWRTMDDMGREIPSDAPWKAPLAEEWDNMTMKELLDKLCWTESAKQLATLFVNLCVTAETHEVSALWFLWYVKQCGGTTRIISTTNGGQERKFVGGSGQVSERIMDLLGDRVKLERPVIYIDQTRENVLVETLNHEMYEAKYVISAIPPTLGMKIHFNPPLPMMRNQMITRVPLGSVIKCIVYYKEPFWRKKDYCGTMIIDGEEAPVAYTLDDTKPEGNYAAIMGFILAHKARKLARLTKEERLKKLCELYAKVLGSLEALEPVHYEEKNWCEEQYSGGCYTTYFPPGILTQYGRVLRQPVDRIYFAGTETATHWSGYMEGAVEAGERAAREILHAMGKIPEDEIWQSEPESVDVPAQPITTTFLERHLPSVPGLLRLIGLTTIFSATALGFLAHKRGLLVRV
As to the kind of experiment: Steady-state MAO-B activity, fluorimetric kynuramine assay. Format: biochemical. To be noted: 40 μM kynuramine, 20 min, pH 7.1; mean ± SD (n); from semilogarithmic plot. The protocol:
(§1) Monoamine oxidase activity was assayed by the fluorimetric method, as previously reported. This method, based on the monoamine oxidase oxidation of its non-selective substrate kynuramine, led to the production of […], which becomes fluorescent in alkaline conditions. In steady-state measurements of MAO activity, the reaction mixture (250 µL), prepared in a 50 mM potassium phosphate buffer, pH 7.1 (buffer A), contained 40 μM kynuramine in the absence or presence of the indicated concentration of the inhibitor. The DMSO concentration carried over by the inhibitor was 0.5% (v/v), and an identical concentration of DMSO was used in the absence of the inhibitor. The reaction started with the addition of 3.75 μg monoamine oxidase A or B and lasted 20 min. The reaction was stopped by adding 150 μL of 2 M NaOH and, after 10 min of incubation at room temperature, 240 μL of water. After centrifugation (10 min at 15,000 rpm), the fluorescence signal was measured on 500 μL of supernatant using a Cary Eclipse Spectrofluorimeter (Agilent Technologies, Milan, Italy) at room temperature (20–25 °C). Excitation and emission wavelengths of 315 and 380 nm, respectively, were employed; slits were set to 10 nm for both the excitation and emission beams.

Experiment [3] deals with T3, bovine milk xanthine oxidase (Bos taurus, UniProt P80457).
T3 construct: bovine milk xanthine oxidase; purchased Sigma-Aldrich (Milan, Italy); host or cells: bovine milk
T3 sequence (P80457 whole entry): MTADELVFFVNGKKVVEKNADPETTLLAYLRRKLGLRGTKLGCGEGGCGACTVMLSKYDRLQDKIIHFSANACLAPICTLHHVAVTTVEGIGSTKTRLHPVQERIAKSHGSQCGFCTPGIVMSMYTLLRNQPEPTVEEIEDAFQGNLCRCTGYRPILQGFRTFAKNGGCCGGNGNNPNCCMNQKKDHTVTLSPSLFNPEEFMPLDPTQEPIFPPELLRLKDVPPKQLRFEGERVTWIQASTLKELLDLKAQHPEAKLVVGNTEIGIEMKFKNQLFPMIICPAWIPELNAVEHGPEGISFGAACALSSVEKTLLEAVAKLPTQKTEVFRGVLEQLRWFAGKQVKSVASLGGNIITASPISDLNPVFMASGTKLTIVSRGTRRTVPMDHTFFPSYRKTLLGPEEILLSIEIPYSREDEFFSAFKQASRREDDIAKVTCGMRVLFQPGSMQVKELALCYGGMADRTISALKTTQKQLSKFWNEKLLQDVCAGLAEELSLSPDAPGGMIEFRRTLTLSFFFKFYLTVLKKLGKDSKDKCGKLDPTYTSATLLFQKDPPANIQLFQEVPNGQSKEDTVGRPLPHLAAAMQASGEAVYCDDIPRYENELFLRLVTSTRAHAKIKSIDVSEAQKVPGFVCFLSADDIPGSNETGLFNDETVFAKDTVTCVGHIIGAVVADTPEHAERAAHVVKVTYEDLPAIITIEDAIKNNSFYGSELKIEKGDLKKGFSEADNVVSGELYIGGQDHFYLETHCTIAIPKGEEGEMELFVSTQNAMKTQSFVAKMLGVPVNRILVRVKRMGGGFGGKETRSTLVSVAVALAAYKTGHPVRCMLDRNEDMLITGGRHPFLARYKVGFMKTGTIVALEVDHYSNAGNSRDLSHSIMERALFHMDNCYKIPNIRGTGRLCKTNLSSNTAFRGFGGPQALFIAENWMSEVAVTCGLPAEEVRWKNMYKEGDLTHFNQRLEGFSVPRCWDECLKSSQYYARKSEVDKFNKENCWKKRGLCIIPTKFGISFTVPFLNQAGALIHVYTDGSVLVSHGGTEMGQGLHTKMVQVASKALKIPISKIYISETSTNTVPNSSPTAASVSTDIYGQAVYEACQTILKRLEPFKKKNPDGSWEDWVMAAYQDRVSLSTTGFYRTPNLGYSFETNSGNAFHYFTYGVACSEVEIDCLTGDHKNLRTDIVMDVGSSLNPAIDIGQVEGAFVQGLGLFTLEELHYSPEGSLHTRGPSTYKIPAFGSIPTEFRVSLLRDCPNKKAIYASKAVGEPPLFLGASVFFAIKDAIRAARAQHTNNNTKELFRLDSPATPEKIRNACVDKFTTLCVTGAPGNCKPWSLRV
As to the kind of experiment: Steady-state xanthine oxidase activity, spectrophotometric assay. Format: biochemical. The protocol: Xanthine oxidase activity was assayed through a spectrophotometric method, essentially as previously reported. […] The DMSO concentration carried over by the inhibitor was 1% (v/v), and an identical concentration of DMSO was used in the absence of the inhibitor. The reaction started with the addition of XO and was followed kinetically for up to 30 s. The initial rate of uric acid formation was expressed as ΔE/min. The effect of each inhibitor in the XO assay was evaluated, and the data were treated as previously indicated for the MAO assay, including the extrapolation of the IC50 values.

Experiment [4] addresses T1, Human monoamine oxidase A. As to the kind of experiment: Kinetic analysis of MAO-A inhibition (KM, Vmax, apparent Ki). Format: biochemical. The procedure: as §1
(§2) The kinetic parameters KM and Vmax for MAO and XO substrates were obtained through kinetic measurements of these activities performed at different substrate concentrations, either in the absence or in the presence of two fixed concentrations of the various inhibitors. […] Each assay was realized as reported above, and the values of the initial velocity (vi) of the reaction were evaluated under the various experimental conditions. The data of vi were nonlinearly fitted according to the Michaelis–Menten equation or analyzed by the Lineweaver–Burk equation in order to derive the kinetic parameters in the absence (KM and Vmax) or in the presence (K’M and V’max) of the inhibitor.
(§3) The inhibition power of the various compounds and their inhibition mechanisms were evaluated. […] However, an apparent inhibition constant (K’i) was calculated at each inhibitor concentration using the equations hereafter reported, depending on the type of inhibition tentatively approached from the experimental data:K’i = V’max × [I]/(Vmax − V’max)(1) K’i = KM × [I]/(K’M − KM)(2) K’i = K’M × [I]/(KM − K’M)(3)
(§4) The K’i values obtained at different inhibitor concentrations were then averaged to obtain a unique value of apparent Ki for each compound.

Experiment [5] has as its target T2, Human monoamine oxidase B. As to the kind of experiment: Kinetic analysis of MAO-B inhibition (KM, Vmax, apparent Ki). Format: biochemical. The protocol:
as §1, §2, §3, §4

The target in experiment [6] is T3, bovine milk xanthine oxidase. The experiment in a line: Kinetic analysis of xanthine oxidase inhibition. Format: biochemical. The protocol:
Xanthine oxidase activity was assayed through a spectrophotometric method, essentially as previously reported. In particular, the oxidation of xanthine to uric acid catalyzed by XO was monitored with a Cary 100 UV-Vis Spectrophotometer (Agilent Technologies, Milan, Italy) at 25 °C, thanks to the increase in absorbance at 295 nm due to uric acid formation. In steady-state measurements of XO activity, the assay was carried out in a 500-μL final volume reaction mixture containing 100 mM phosphate buffer, pH 7.8 plus 0.1 mM EDTA (buffer B), 75 μM xanthine, and different concentrations of the various inhibitors. The DMSO concentration carried over by the inhibitor was 1% (v/v), and an identical concentration of DMSO was used in the absence of the inhibitor. The reaction started with the addition of XO and was followed kinetically for up to 30 s. The initial rate of uric acid formation was expressed as ΔE/min. The effect of each inhibitor in the XO assay was evaluated, and the data were treated as previously indicated for the MAO assay, including the extrapolation of the IC50 values.
as §2
The inhibition power of the various compounds and their inhibition mechanisms were evaluated. […]

The next experiment has as its system XO. Further details: method as in PMID 16450295. As to conditions: cited from earlier work.
The test system of the next experiment is MAO-A. Further details: method as in PMID 24140951. To be noted: control of MAO-A inhibition; cited from earlier work.
The mark [7] stands for this setting: kynuramine 25–150 µM, two fixed inhibitor concentrations.

The term IC50 denotes the concentration that inhibits the measured activity by half.

As to `O=C(OCCc1cc(O)c(O)cc1[N+](=O)[O-])C1CCN(Cc2ccccc2)CC1` [HT2, 4,5-dihydroxy-2-nitrophenethyl 1-benzylpiperidine-4-carboxylate], the half-inhibitory concentration (IC50) was 322 ± 58 µM in experiment [1]; 184 ± 48 µM in experiment [2]; 109 ± 20 µM in experiment [3] (75 μM xanthine, pH 7.8, 25 °C, mean ± SE (n), extrapolated from semilogarithmic plot, read-out: IC50 XO inhibition). Also, the “Inhibition of XO activity (in words)” value in experiment [3] (steady-state, concentration series) is “clearly evident concentration-dependent inhibition”. The Ki is 398 ± 56 µM in experiment [4] (apparent Ki, mean ± SE (n), read-out: Ki, Calculated from Vmax Decrease (MAO-A)); 186 ± 98 µM in experiment [5] (uncompetitive, apparent Ki, mean ± SE (n), read-out: Ki, average value from Vmax or KM decrease (MAO-B)); 63 ± 8 µM in experiment [6] (apparent Ki, mean ± SE (n), read-out: Ki Calculated from KM Increase (XO)). Moreover, the “Inhibition Type (MAO-A)” value in experiment [4] (setting [7]) is on record as “noncompetitive”. Moreover, the “Inhibition Type (MAO-B)” value in experiment [5] (setting [7]) was “uncompetitive”. Further, in experiment [6], the “Note: type of inhibition approached (XO)” value is given as “approaching competitive”. Besides, the “Inhibition Type (XO)” value in experiment [6] (xanthine 4–30 µM, 75 or 100 µM HT2) is on record as “mixed-type”.

As to `Oc1ncnc2[nH]ncc12` [Allopurinol, allopurinol], in the experiment with XO, the “Inhibition Type (XO)” value was “Competitive [53]” and the Ki is 1.8 µM.

For `C#CCN(C)CCCOc1ccc(Cl)cc1Cl` [Clorgyline, clorgyline], the “Inhibition Type (MAO-A)” value in the experiment on MAO-A was “Inactivator [52]”.
